The structures appear in SMILES notation. pEC50: −log10 of the molar value.

This assay concerns the target T1, human RXFP1 (Homo sapiens, UniProt Q9HBX9).
T1 construct: expressed in transfected cells
T1 sequence (Q9HBX9 1-757): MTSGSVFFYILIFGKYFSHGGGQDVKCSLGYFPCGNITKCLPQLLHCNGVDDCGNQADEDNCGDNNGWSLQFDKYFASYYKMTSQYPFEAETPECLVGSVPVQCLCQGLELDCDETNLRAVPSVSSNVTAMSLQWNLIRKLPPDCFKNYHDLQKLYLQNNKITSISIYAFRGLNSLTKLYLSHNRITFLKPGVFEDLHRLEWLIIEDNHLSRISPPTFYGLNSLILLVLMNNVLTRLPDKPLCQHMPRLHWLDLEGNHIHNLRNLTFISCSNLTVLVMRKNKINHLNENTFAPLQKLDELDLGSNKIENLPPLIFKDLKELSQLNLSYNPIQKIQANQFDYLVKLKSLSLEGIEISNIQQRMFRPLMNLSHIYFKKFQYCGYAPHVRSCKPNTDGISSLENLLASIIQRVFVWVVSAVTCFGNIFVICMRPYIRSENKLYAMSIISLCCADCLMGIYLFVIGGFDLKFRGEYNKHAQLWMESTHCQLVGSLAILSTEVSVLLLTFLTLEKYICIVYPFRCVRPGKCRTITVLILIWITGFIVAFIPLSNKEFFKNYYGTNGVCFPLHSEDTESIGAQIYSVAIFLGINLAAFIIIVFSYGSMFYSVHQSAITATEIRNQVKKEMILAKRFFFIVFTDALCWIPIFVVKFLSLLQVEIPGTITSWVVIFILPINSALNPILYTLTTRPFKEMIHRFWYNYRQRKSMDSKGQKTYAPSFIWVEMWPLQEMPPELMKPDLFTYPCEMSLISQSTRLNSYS
The assay can be described thus: hRXFP1 HEK293 cAMP assay (HTRF). The assay is classed as cell-based. Particulars: HEK293 cells stably expressing human RXFP1; 30 min at rt; intracellular cAMP by HTRF. The method, boiled down:
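Agonism is measured as cAMP by HTRF, quantified from a standard curve via the 665/590 nm ratio and fitted with a four-parameter logistic equation. Compounds (0.010 nM to 50 μM final, 2% DMSO) were applied for 30 min at rt to human RXFP1-expressing HEK293 cells in assay buffer containing 0.5 mM IBMX.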
(In general: cAMP levels reflect the balance of adenylyl cyclase and phosphodiesterase activity.)
Regarding `COc1ccc(-c2cnc(C3(O)CCS(=O)(=O)C3)nc2)cc1C(=O)Nc1c(C(=O)Nc2ccc(F)c(C(F)(F)F)c2)sc2cc(C(F)(F)F)ccc12` (single isomer, unassigned) [Example 23, N-(4-fluoro-3-(trifluoromethyl)phenyl)-3-(5-(2-(3-hydroxy-1,1-dioxidotetrahydrothiophen-3-yl)pyrimidin-5-yl)-2-methoxybenzamido)-6-(trifluoromethyl)benzo[b]thiophene-2-carboxamide], the pEC50 was 5.51.
The same measure for `COc1ccc(C2=NOC3(C2)CN(C(=O)C(C)(C)CO)C3)cc1C(=O)Nc1c(C(=O)Nc2ccc(F)c(C(F)(F)F)c2)sc2cc(C(F)(F)F)ccc12` [Example 283, N-(4-fluoro-3-(trifluoromethyl)phenyl)-3-(5-(2-(3-hydroxy-2,2-dimethyl-propanoyl)-5-oxa-2,6-diazaspiro[3.4]oct-6-en-7-yl)-2-methoxy-benzamido)-6-(trifluoromethyl) benzo[b] thiophene-2-carboxamide]: 5.95; for `COc1ccc(C2CC3(C2)CN(C2COC2)C3)cc1C(=O)Nc1c(C(=O)Nc2ccc(F)c(C(F)(F)F)c2)sc2cc(C(F)(F)F)ccc12` [Example 106, N-(4-fluoro-3-(trifluoromethyl)phenyl)-3-(2-methoxy-5-(2-(oxetan-3-yl)-2-azaspiro[3.3]heptan-6-yl)benzamido)-6-(trifluoromethyl) benzo[b] thiophene-2-carboxamide]: 6.61.
The same measure for `COc1ccc(-c2cc(C(=O)O)ccc2F)cc1C(=O)Nc1c(C(=O)Nc2ccc(F)c(C(F)(F)F)c2)sc2cc(C)ccc12` [Example 215, 6-fluoro-3′-((2-((4-fluoro-3-(trifluoromethyl)phenyl)carbamoyl)-6-methylbenzo[b]thiophen-3-yl)carbamoyl)-4′-methoxy-[1,1′-biphenyl]-3-carboxylic acid]: 5.84.
`COc1ccc(N2CCCC2=O)cc1C(=O)Nc1c(C(=O)Nc2ccc(F)c(C(F)(F)F)c2)sc2cc(C(F)(F)F)ccc12` [Example 290, N-[4-fluoro-3-(trifluoromethyl)phenyl]-3-[2-methoxy-5-(2-oxopyrrolidin-1-yl)benzamido]-6-(trifluoromethyl)-1-benzothiophene-2-carboxamide] had a negative logarithm of the EC50 (pEC50) of 5.85.
The same measure for `COc1ccc(C(=O)N2CCO[C@@H](CO)C2)cc1C(=O)Nc1c(C(=O)Nc2ccc(F)c(C(F)(F)F)c2)sc2cc(C(F)(F)F)ccc12` [Example 129, (R)-N-(4-fluoro-3-(trifluoromethyl)phenyl)-3-(5-(2-(hydroxymethyl)morpholine-4-carbonyl)-2-methoxy-benzamido)-6-(trifluoromethyl) benzo[b] thiophene-2-carboxamide]: 6.35; for `COc1ccc(C2CC3(C2)CN(C(=O)CN(C)C)C3)cc1C(=O)Nc1c(C(=O)Nc2ccc(F)c(C(F)(F)F)c2)sc2cc(C(F)(F)F)ccc12` [Example 206, 3-(5-(2-(dimethylglycyl)-2-azaspiro[3.3]heptan-6-yl)-2-methoxy-benzamido)-N-(4-fluoro-3-(trifluoromethyl)phenyl)-6-(trifluoromethyl) benzo[b] thiophene-2-carboxamide]: 5.68.
Compound `COc1ccc(C(=O)NCC2(S(C)(=O)=O)CC2)cc1C(=O)Nc1c(C(=O)Nc2ccc(F)c(C(F)(F)F)c2)sc2cc(C(F)(F)F)ccc12` [Example 131, N3-(2-((4-fluoro-3-(trifluoromethyl)phenyl)carbamoyl)-6-(trifluoromethyl)benzo[b]thiophen-3-yl)-4-methoxy-N1-((1-(methylsulfonyl)cyclopropyl)methyl) isophthalamide] had a pEC50 of 7.29.
The same measure for `COc1ccc(N2CCCCS2(=O)=O)cc1C(=O)Nc1c(C(=O)Nc2ccc(F)c(C(F)(F)F)c2)sc2cc(C(F)(F)F)ccc12` [Example 10, 3-(5-(1,1-dioxido-1,2-thiazinan-2-yl)-2-methoxybenzamido)-N-(4-fluoro-3-(trifluoromethyl)phenyl)-6-(trifluoromethyl)benzo[b]thiophene-2-carboxamide]: 6.95; for `COc1ccc(-c2cccc(C(=O)O)c2F)cc1C(=O)Nc1c(C(=O)Nc2ccc(F)c(C(F)(F)F)c2)sc2cc(C(F)(F)F)ccc12` [Example 14, 2-fluoro-3′-((2-((4-fluoro-3-(trifluoromethyl)phenyl)carbamoyl)-6-(trifluoromethyl)benzo[b]thiophen-3-yl)carbamoyl)-4′-methoxy-[1,1′-biphenyl]-3-carboxylic acid]: 6.87; for `COc1ccc(C2CC2C(C)(C)O)cc1C(=O)Nc1c(C(=O)Nc2ccc(F)c(C(F)(F)F)c2)sc2cc(C(F)(F)F)ccc12` (stereo not shown) [Example 159, N-(4-fluoro-3-(trifluoromethyl)phenyl)-3-(5-(2-(2-hydroxypropan-2-yl)cyclopropyl)-2-methoxy-benzamido)-6-(trifluoromethyl) benzo[b] thiophene-2-carboxamide]: 6.70.
For the compound `COc1ccc(-c2noc(C(C)(C)CO)n2)cc1C(=O)Nc1c(C(=O)Nc2ccc(F)c(C(F)(F)F)c2)sc2cc(C(F)(F)F)ccc12` [Example 274, N-(4-fluoro-3-(trifluoromethyl)phenyl)-3-(5-(5-(1-hydroxy-2-methylpropan-2-yl)-1,2,4-oxadiazol-3-yl)-2-methoxy-benzamido)-6-(trifluoromethyl) benzo[b] thiophene-2-carboxamide], the negative logarithm of the EC50 (pEC50) was 6.56.
Compound `COc1ccc(C2CCCC(C)(O)C2)cc1C(=O)Nc1c(C(=O)Nc2ccc(F)c(C(F)(F)F)c2)sc2cc(C(F)(F)F)ccc12` (single isomer, unassigned) [Example 35, N-(4-fluoro-3-(trifluoromethyl)phenyl)-3-(5-(3-hydroxy-3-methylcyclohexyl)-2-methoxybenzamido)-6-(trifluoromethyl)benzo[b]thiophene-2-carboxamide] gave a pEC50 of 6.10.
The same measure for `COc1ccc(C2CCCN(CC(N)=O)CC2)cc1C(=O)Nc1c(C(=O)Nc2ccc(F)c(C(F)(F)F)c2)sc2cc(C(F)(F)F)ccc12` (single isomer, unassigned) [Example 73, 3-(5-(1-(2-amino-2-oxoethyl)azepan-4-yl)-2-methoxy-benzamido)-N-(4-fluoro-3-(trifluoromethyl)phenyl)-6-(trifluoromethyl) benzo[b] thiophene-2-carboxamide]: 5.98; for `COc1ccc(C2=NOC(C(C)(C)O)C2)cc1C(=O)Nc1c(C(=O)Nc2ccc(F)c(C(F)(F)F)c2)sc2cc(C(F)(F)F)ccc12` (single isomer, unassigned) [Example 258, N-[4-fluoro-3-(trifluoromethyl)phenyl]-3-{5-[5-(2-hydroxypropan-2-yl)-4,5-dihydro-1,2-oxazol-3-yl]-2-methoxy-benzamido}-6-(trifluoromethyl)-1-benzothiophene-2-carboxamide]: 6.17; for `COc1ccc(N2CCCC(NCC(N)=O)C2)cc1C(=O)Nc1c(C(=O)Nc2ccc(F)c(C(F)(F)F)c2)sc2cc(C(F)(F)F)ccc12` (stereo in doubt) [Example 112, (R)-3-(5-(3-((2-amino-2-oxoethyl)amino)piperidin-1-yl)-2-methoxy-benzamido)-N-(4-fluoro-3-(trifluoromethyl)phenyl)-6-(trifluoromethyl) benzo[b] thiophene-2-carboxamide]: 6.23.
`COc1ccc(C23CCC(C(C)(C)O)(CC2)CC3)cc1C(=O)Nc1c(C(=O)Nc2ccc(F)c(C(F)(F)F)c2)sc2cc(C(F)(F)F)ccc12` [Example 40, N-(4-fluoro-3-(trifluoromethyl)phenyl)-3-(5-(4-(2-hydroxypropan-2-yl)bicyclo [2.2.2]octan-1-yl)-2-methoxybenzamido)-6-(trifluoromethyl) benzo[b]thiophene-2-carboxamide] showed a pEC50 of 6.66.
The value for `COC(=O)C1CN(c2ccc(OC)c(C(=O)Nc3c(C(=O)Nc4ccc(F)c(C(F)(F)F)c4)sc4cc(C(F)(F)F)ccc34)c2)C1` [Example 1, Methyl 1-(3-((2-((4-fluoro-3-(trifluoromethyl)phenyl)carbamoyl)-6-(trifluoromethyl)benzo[b]thiophen-3-yl)carbamoyl)-4-methoxyphenyl)azetidine-3-carboxylate] was 6.20.
The same measure for `COc1ncc(N2CCS(=O)(=O)CC2)cc1C(=O)Nc1c(C(=O)Nc2ccc(F)c(C(F)(F)F)c2)sc2cc(C(F)(F)F)ccc12` [Example 12, 5-(1,1-dioxidothiomorpholino)-N-(2-((4-fluoro-3-(trifluoromethyl)phenyl)carbamoyl)-6-(trifluoromethyl)benzo[b]thiophen-3-yl)-2-methoxynicotinamide]: 5.67.

What is called pEC50 is the EC50 on a negative log10 scale, so that one unit is a factor of ten. A higher pEC50 goes with a small EC50.

Source of the values: patent publication US20260265233A1, “BENZOTHIOPHENE DERIVATIVES AS RXFP1 AGONISTS” (BRISTOL-MYERS SQUIBB COMPANY, priority 2021, published 2026).
